Data from PMC4267622, “Pin1-mediated Sp1 phosphorylation by CDK1 increases Sp1 stability and decreases its DNA-binding activity during mitosis” (Nucleic Acids Research, 2014).
One block for each molecule: values may come before it.

Tests used:
HeLa cells = assay: Flow cytometry with PI staining (cell cycle); assay type: cell-based; conditions: nocodazole 16 h
Protocol: The cells washed by cold PBS and then fixed in 70% alcohol or 4% paraformaldehyde at 4°C for 2 h. After fixation, the cells washed by cold PBS and treated with 0.1% TritonX-100, 10μg/ml RNase and 50 μg/ml propidium iodide for 1 h. The cells were analysed by flow cytometer (Cell Lab Quanta™ SC; Beckman Coulter or FACSCalibur; BD Biosciences).

[1] = system: Sp1-binding probe of p21^WAF1/CIP1 promoter; assay: DNA affinity precipitation assay (DAPA); conditions: 4°C, 1 h
Protocol: Cell lysate incubated with 1 μg of binding probes in 500 μl binding of buffer (2 mM MgCl2, 60 mM KCl, 20 mM Tris-HCl pH 7.8, 5% glycerol, 0.5 mM EDTA and 0.02% NP-40). After incubation for 1 h at 4°C, the mixture was incubated with 30 μl of streptavidin-agarose beads (GE Healthcare Life Sciences) for 1 h at 4°C. The mixture was washed three times by binding buffer. The proteins in the beads were eluted by 2X sample buffer and analysed by SDS-PAGE and immunoblotting. The Sp1-binding probe 5′-[…]-3′, localized from −82 to −50 bp within the promoter of p21^WAF1/CIP1, was biotinylated at 5′ termini and then annealed with complementary strands.

mitotic Sp1 = assay: GST-Pin1 pull-down with HeLa lysates; assay type: binding; conditions: mitotic HeLa lysate; for interaction with phospho-Sp1(T739): antibody against phospho-Sp1 (T739)
Protocol: (§1) The mixture was incubated with shaking for 1 h at 4°C. The beads were washed three times in NETN buffer and added to the interphase or mitotic cell extract. The reaction mixture was incubated on ice for 1 h. The beads were then washed in NETN buffer. Proteins were eluted by sample buffer and separated by SDS- PAGE.

CDK1/cyclin B1 = assay: In vitro CDK1/cyclin B1 kinase assay; assay type: biochemical; conditions: 15 min; for effect on CDK1-mediated Sp1 phosphorylation: substrate GST-Sp1 (619–785), [γ-^32P] ATP, 30°C; for phosphorylation by CDK1 (as substrate): 1 μg Sp1 protein, 50 ng CDK1/cyclin B1, 30°C
Protocol: For the in vitro phosphorylation analysis, the GST-Sp1(619-785), GST-Sp1(619-785)-T739A, GST-Sp1(619-785)-T739D, GST-Sp1(619-785)-P6, GST-Sp1(619-785)-Z12, GST-Sp1(619-715) or GST-Sp1(619-740) were purified from Escherichia coli BL21 (DE3). These different Sp1 proteins and active CDK1/cyclin B1 (New England Biolabs, Beverly, MA) were used to examine Sp1 phosphorylation in vitro. Each reaction (20 μl) contained 1 μg of purified Sp1, 50 ng of active CDK1/cyclin B1, 2 μCi of [γ-^32P] ATP (GE Healthcare Life Sciences), 1 mM ATP (New England Biolabs) and […] of 10× kinase buffer containing 500 mM HEPES pH 7.4, 10 mM MgCl2, 1 mM EGTA and 1 mM dithiothreitol. The phosphorylation reactions were incubated at 30°C for 15 min. After the incubation, one-half of the reaction was added to 10 μl of 2×electrophoresis sample buffer, which was then heated to 95°C for 5 min. Proteins in the mixtures were immediately separated using SDS-polyacrylamide gel electrophoresis (PAGE).

Pin1 [2] = assay: Pin1 interaction of Sp1 mutants (anti-Pin1 immunoprecipitation / pull-down); assay type: binding; conditions: mitotic HeLa lysates / pull-down
Protocol: Cell lysates were prepared by using mRIPA buffer (50 mM Tris-HCl, pH 7.8, 150 mM NaCl, 5 mM ethylenediaminetetraacetic acid (EDTA), 0.1% Triton-X100, 0.05% NP-40). The lysates were incubated with anti-Sp1 (1:500), anti-CDK1 (1:200), anti-Pin1 (1:250), anti-HA tag (1:250), or anti-GFP tag (1:200) antibodies at 4°C for 1 h. After 1 h incubation, the mixture was incubated with Protein A or G Sepharose agarose beads at 4°C for 1 h. The beads were collected and washed three times by mRIPA buffer. The beads were added 2X electrophoresis sample buffer and analysed by immunoblotting.
as §1

[3] = molecular target: Pin1 (purified, used in ITC) (UniProt Q13526); assay: ITC; Sp1 peptide (900 mM [sic]) titrated into Pin1 (60 mM [sic]) in the cell; 10 mM HEPES pH 7.5, 100 mM NaCl, 1 mM DTT; 25°C; MicroCal iTC200
Pin1 [4] = molecular target: Pin1 (UniProt Q13526); assay: isothermal titration calorimetry; conditions: reference: Thr739-Sp1 peptide (unphosphorylated); sites T739
JNK1 = assay: In vitro kinase assay with JNK1; assay type: biochemical; conditions: substrate GST-Sp1(619-785)
Pin1 [5] = molecular target: Pin1 (UniProt Q13526); assay: co-IP with anti-Pin1, Sp1 blot; conditions: reference: GFP-Sp1 wild type; sites T739
Pin1 [6] = assay: Co-localization of Sp1 and Pin1 by immunofluorescence in sub-mitotic stages; assay type: cell-based; conditions: HeLa
Protocol: The cells were fixed with 4% paraformaldehyde (Sigma-Aldrich) in PBS according to a method described previously ([3]). Immunostaining was conducted with primary antibodies such as anti-Sp1, anti-GFP tag (Santa Cruz Biotechnology, Santa Cruz, CA), or anti-Pin1 (Calbiochem, San Diego, CA) antibodies. The cells were then treated with Alexa Fluor 488-conjugated goat anti-mouse or rabbit immunoglobulin G (IgG) and Alexa Fluor 568-conjugated goat anti-mouse or rabbit IgG polyclonal antibodies (Jackson ImmunoResearch Laboratories Inc., West Grove, PA). Finally, the cells were mounted in 90% glycerol containing 4'-6-diamidino-2-phenylindole (DAPI) (Invitrogen), and examined using a confocal laser-scanning microscope (FluoView^TM FV 1000; Olympus, Melville, NY) or immunofluorescence microscope (Personal DV Applied Precision, Issaquah, WA). The images were analysed with softWoRx software (Applied Precision Inc.).

GST-Sp1(619-785) = GST-Sp1(619-785) (UniProt P08047 619-785); assay: DAPA (streptavidin pull-down); DAPA: 1 ug probe in 500 ul 20 mM Tris-HCl pH 7.8, 60 mM KCl, 2 mM MgCl2, 0.5 mM EDTA, 5% glycerol, 0.02% NP-40; 1 h at 4 C, then streptavidin-agarose 1 h at 4 C; conditions: protein: recombinant; tags: GST; label: 5' biotin on S1 strand; blunt
GST-Sp1(619-785)-T739D = GST-Sp1(619-785)-T739D (UniProt P08047 619-785, T739D); assay: DAPA (streptavidin pull-down); no significant difference from GST-Sp1(619-785); DAPA: 1 ug probe in 500 ul 20 mM Tris-HCl pH 7.8, 60 mM KCl, 2 mM MgCl2, 0.5 mM EDTA, 5% glycerol, 0.02% NP-40; 1 h at 4 C, then streptavidin-agarose 1 h at 4 C; conditions: protein: recombinant; tags: GST; label: 5' biotin on S1 strand; blunt

Molecule: Sp1-4A: Sp1 mutant S720A, T723A, T737A and T739A
- cells entered mitosis (HeLa cells): 62%
- DNA-binding activity to the p21^CIP/WAP promoter ([1]; mitotic extract of HeLa cells, three independent experiments): increased its DNA-binding activity to the p21^CIP/WAP promoter

Molecule: GST-Sp1 (619–785)-T739D: mimic phosphorylation form of GST-Sp1 (619–785)
- DNA-binding signal ([1]; purified GST-Sp1 proteins, four independent experiments): No significant difference in the DNA-binding signal

Molecule: Pin1-W34A: Pin1 mutated in the recognition domain
- interaction with mitotic Sp1 (mitotic Sp1): but not Pin1-W34A, interacted with mitotic Sp1
- effect on CDK1-mediated Sp1 phosphorylation (CDK1/cyclin B1): but not Pin1-W34A and Pin1-WW, increased the signal

Molecule: Sp1-T739A: phosphorylation site mutated Sp1
- interaction with Pin1 (Pin1 [2]): decreased interaction with Pin1

- Ka [3]: 7400 M⁻¹
- Kd [3]: 50 µM
- dH [3]: -6.8 kcal/mol
- stoichiometry N [3]: 0.93
Molecule: Thr739(p)-Sp1 peptide (from UniProt P08047 735-745)

- phosphorylation by CDK1 (as substrate) (CDK1/cyclin B1): No signal was detected
Molecule: GST-Sp1 (619–785)-T739A: T739A mutant of GST-Sp1 (619–785)

- other: Ka (Pin1 [4]): 7.4 M⁻¹
Molecule: Sp1 735-745 (from UniProt P08047) Thr739(p)-Sp1 peptide

- effect on JNK1 phosphorylation of Sp1 (JNK1): this phosphorylation remained unaffected
Molecule: Pin1: recombinant wild-type Pin1, peptidyl-prolyl isomerase
- interaction with mitotic Sp1 (mitotic Sp1): interacted with mitotic Sp1
- interaction with phospho-Sp1(T739) (mitotic Sp1): interacted with phospho-Sp1(T739)
- effect on CDK1-mediated Sp1 phosphorylation (CDK1/cyclin B1): increased the signal of CDK1-mediated Sp1 phosphorylation in a dose dependent manner

Molecule: GST-Sp1 (619–785): truncated Sp1, wild-type C-terminal region
- phosphorylation by CDK1 (as substrate) (CDK1/cyclin B1): phosphorylated by CDK1, albeit to a lesser extent

Molecule: GST-WW: recognition motif (WW domain) of Pin1
- interaction with phospho-Sp1(T739) (mitotic Sp1): interacted with phospho-Sp1(T739)
- effect on CDK1-mediated Sp1 phosphorylation (CDK1/cyclin B1): but not Pin1-W34A and Pin1-WW, increased the signal

- phosphorylation by CDK1 (as substrate) (CDK1/cyclin B1): No signal was detected
Molecule: GST-Sp1 (619–715): truncated Sp1, amino acids 619–715

Molecule: Sp1-T739D: mimic phosphorylated Sp1
- interaction with Pin1 (Pin1 [2]): increased interaction with GST-Pin1

- binding against the reference (Pin1 [5]): weaker
Molecule: Sp1 (from UniProt P08047) GFP-Sp1 T739A

Molecule: Sp1: transcription factor Sp1; endogenous or GFP-Sp1-WT expressed in HeLa cells
- Sp1 interaction/co-localization with Pin1 (Pin1 [6]; anaphase (within 20–60 min of nocodazole release)): 93%
- Sp1 interaction/co-localization with Pin1 (Pin1 [6]; metaphase (within 20–60 min of nocodazole release)): 91.4%
- Sp1 interaction/co-localization with Pin1 (Pin1 [6]; prophase (within 20 min of nocodazole release)): 81.3%

Molecule: GST-Sp1 (619–740): truncated Sp1, C-terminus (741–785) ablated
- phosphorylation by CDK1 (as substrate) (CDK1/cyclin B1): an increased phosphorylation signal was obtained

B1: p21WAF1/CIP1 promoter Sp1 probe (-82 to -50) (dsDNA)
DNA 1: CCCGCCTCCTTGAGGCGGGCCCGGGCGGGGCGG
DNA 2: CCGCCCCGCCCGGGCCCGCCTCAAGGAGGCGGG
- binding result (GST-Sp1(619-785)): binds
- binding result (GST-Sp1(619-785)-T739D): binds
